Columns and labels:
proliferating T cells = test: PMET activity measured by WST-1/PMS reduction; type: cell-based; conditions: Homo sapiens, T-cell, read-out: IC50 inhibition of PMET (WST-1/PMS reduction)
Protocol: (§1) Immediately prior to experiments, frozen PBMC were thawed, centrifuged at 1400 rpm in a Multifuge 3 s (Heraeus) for 4 min, washed in RPMI+10% FCS and resuspended in T cell medium (RPMI+10% FCS+10 μM 2-mercaptoethanol (Sigma), 1×glutamine, 1×non-essential amino acids (Gibco)) at 2×10^6 cells/mL. Cells (2×10^5) were activated by adding 10 μg/mL anti-CD3 and 5 μg/mL anti-CD28 and 20 U/mL IL-2 per well. Cells were incubated at 37° C. in a humidified incubator maintained at 5% CO2 for 4 to 5 days until large numbers of large spherical aggregates or “bursts” of lymphocytes were observed. Activated proliferating T cells were pooled from the wells for further experiments. Resting T cells were incubated for the same length of time but in the presence of 20 U/mL IL-2 only.
(§2) WST-1/PMS reduction rates were measured in a microplate format as described previously (Berridge and Tan, 1998). […] WST-1 reduction was measured in real time at 450 nm over 30-60 min in a BMG FLUOstar OPTIMA plate reader.
(§3) The effect of PXD on PMET (FIG. 1A) was investigated by measuring reduction of the cell impermeable tetrazolium dye, WST-1, in the presence of its obligate intermediate electron acceptor, 1 mPMS (WST-1/PMS reduction). […] The effect of PXD on proliferation (FIG. 1B) was determined by measuring intracellular reduction of the tetrazolium salt, MTT.

resting T cells [1] = test: PMET activity measured by WST-1/PMS reduction; type: cell-based; conditions: Homo sapiens, T-cell, read-out: IC50 inhibition of PMET (WST-1/PMS reduction)
Protocol: as §1, §2, §3

[2] = Apoptosis/viability by Annexin V/propidium iodide staining; type: cell-based, human; conditions: human, resting T cells from PBMC; resting T cells, 10 μM PXD for 24 h; read-out: [% viable blasts after PXD exposure]/[% viable blasts after 0.1% DMSO exposure]
Protocol: as §1
(§4) Cells were centrifuged at 1400 rpm in a Multifuge 3 s (Heraeus) for 4 min at room temperature, washed in phosphate buffered saline solution, pH 7.3 (PBS) and resuspended in Annexin V binding buffer. Small aliquots (0.5-1×10^6 cells) were transferred to 1.5 mL tubes and spun at 1400 rpm in a Multifuge 3 s (Heraeus) for 4 min. […] Staining was analyzed by flow cytometry using a Becton Dickinson Canto II FACS analyser using FlowJo (TreeStar) software.
(§5) The extent of apoptosis in resting and proliferating T cells was determined after 24 h exposure to 10 μM PXD (FIG. 2) by AV/PI staining. […]

resting T cells [3] = test: as above; type: cell-based, human; conditions: 10 μM PXD for 24 h
Protocol: as §1, §4, §5

unstimulated T cells = test: HLA-mismatched MLR after transient exposure of unstimulated T cells to PXD; type: cell-based, human; conditions: 10 μM PXD 24 h, washed, then MLR, FACS 8 days later; control MLR 62.6%
Protocol: Mixed lymphocyte reactions were established using unrelated, HLA-mismatched healthy donor blood samples as donor/recipient pairs. Stimulator PBMC were γ-irradiated with 30 Gy as described previously (Zenhausen et al., 2007). Responder PBMC were washed twice in PBS, 5,6-carboxy-succinimidyl-fluorescein-ester (CSFE)-labelled (1.25 μM, Sigma) at room temperature for 5 minutes, and washed twice in PBS/10% FCS. Two hundred thousand stimulator and responder cells were added per well at a 1:1 ratio in a 96 U-well plate in T cell medium. Stimulator and responder cells were also plated alone, and all cells were cultured in a 5% CO2, 37° C. humidified incubator. Viability, CFSE fluorescence and cell surface antigen expression were determined by flow cytometry. Cells were washed twice in FACS buffer (PBS, 2% FCS), and resuspended in 50 μL/5×10^5 cells and analysed on a Becton Dickinson LSRII FACS analyser using FlowJo (TreeStar) software.
The inventors next determined whether a transient exposure to PXD affected the ability of unstimulated T cells to respond normally to foreign antigen. Unstimulated T cells were incubated with 10 μM PXD for 24 h, washed twice and stimulated by adding HLA-mismatched γ-irradiated stimulator cells.

MM-derived RPMI 8226 = test: Sensitivity of cell types to PXD, viability by AV/PI staining; type: cell-based, human; conditions: RPMI 8226, 10 μM PXD for 24 h
Protocol: FIG. 6. Sensitivity of different cell types to PXD. Different cell types were incubated with 10 μM PXD for 24 h and viability was determined by AV/PI staining and reported as [% viable blasts after PXD exposure]/[% viable blasts after 0.1% DMSO exposure]. Percentage values are as follows: AML-derived HL60: 16±5 and HL60p°: 54±6, ALL-derived MOLT-4: 44±4, MM-derived U226: 59±6 and RPMI 8226: 12±4, primary AML blasts: 64±5, primary ALL blasts: 23±4, normal BM: 89±5, proliferating T cells: 69±4, resting T cells: 98±6. Results from cell lines are presented as the average±SEM of at least 3 separate experiments, results from bone marrow samples are presented as the average±SD of single experiments performed in duplicate.
Cell lines were grown in RPMI-1640 medium (GIBCO-BRL, Grand Island, N.Y.) supplemented with 5% (v/v) fetal calf serum, 2 mM […], 25 μg/mL penicillin, 25 μg/mL streptomycin, 50 μg/mL uridine and 1 mM pyruvate to densities of 1-2×10^6 cells/mL (exponential stage), at 37° C. in a humidified incubator maintained at 5% CO2.
as §4, with “buffer.” for “buffer. Small aliquots (0.5-1×10^6 cells) were transferred to 1.5 mL tubes and spun at 1400 rpm in a Multifuge 3 s (Heraeus) for 4 min.”

**Q.** With `Oc1ccc(C2=Cc3ccc(O)cc3OC2)cc1` [PXD, Isoflav-3-en-4′,7-diol] as the compound, how does the IC50 (proliferating T cells) read?
**A.** The IC50 was 46 µM.

**Q.** And the IC50 (resting T cells [1])?
**A.** The IC50 was greater than 200 µM.

**Q.** And the viability at 24 h, 10 μM [2]?
**A.** The viability at 24 h, 10 μM was 98 ± 6%.

**Q.** What about the “percentage of viable resting T cells (AV/PI)” value (resting T cells [3]) of the same compound?
**A.** Its value is “unaltered”.

**Q.** What about the “CD3+CFSEloAV− population after transient exposure” value (unstimulated T cells) of the same compound?
**A.** Its value is 56.2%.

**Q.** What about the “[% viable blasts after PXD exposure]/[% viable blasts after 0.1% DMSO exposure]” value (MM-derived RPMI 8226) of the same compound?
**A.** The value was 12±4%.

Source: US20120039917A1, “IMMUNO[…]” (priority 2008, published 2012)
